Reference: US12331054B2, “Perk inhibiting imidazolopyrazine compounds” (HiberCell, Inc., priority 2019, dated 2025)

What was measured:
[1] = system: eIF2α in HEK293-EGFP-eIF2α cells; experiment: PERK Cellular Assay (HEK293-EGFP-eIF2α cells, tunicamycin-induced ER stress, TR-FRET); type: cell-based; details: tunicamycin 2 hours
Description: Stable cell lines were created in HEK293 cells using lentiviral particles harboring an expression vector for GFP-eIF2α. Cells were selected using puromycin and enriched using fluorescence activated cell sorting against GFP. HEK293-EGFP-eIF2α cells were plated at 5000 cells/well in 384-well assay plates and incubated overnight at 37° C., 5% CO2. Inhibitor compounds were added to the wells by Echo acoustic dispensing and incubated for 30 minutes at 37° C., 5% CO2 prior to induction of ER stress by addition of tunicamycin to […] for 2 hours. Cells were lysed and TR-FRET was measured in an EnVision plate reader (PerkinElmer). FRET ratio data was normalized to signal from lysates treated with DMSO vehicle control and plotted as percent inhibition against 10-point; 3-fold dilution series of inhibitors. IC50 values were calculated using 4-parameter logistical fitting in XLFit.

[2] = molecular target: Recombinant human EIF2AK3 (PERK) catalytic domain (amino acids 536-1116) (Homo sapiens (Human), UniProt Q9NZJ5); experiment: PERK In Vitro Activity Assay (isolated), TR-FRET kinase assay; details: isolated PERK enzyme, 1.5 μM ATP, read-out: Biochemical IC50
Sequence of Recombinant human EIF2AK3 (PERK) catalytic domain (amino acids 536-1116) (Q9NZJ5 536-1116): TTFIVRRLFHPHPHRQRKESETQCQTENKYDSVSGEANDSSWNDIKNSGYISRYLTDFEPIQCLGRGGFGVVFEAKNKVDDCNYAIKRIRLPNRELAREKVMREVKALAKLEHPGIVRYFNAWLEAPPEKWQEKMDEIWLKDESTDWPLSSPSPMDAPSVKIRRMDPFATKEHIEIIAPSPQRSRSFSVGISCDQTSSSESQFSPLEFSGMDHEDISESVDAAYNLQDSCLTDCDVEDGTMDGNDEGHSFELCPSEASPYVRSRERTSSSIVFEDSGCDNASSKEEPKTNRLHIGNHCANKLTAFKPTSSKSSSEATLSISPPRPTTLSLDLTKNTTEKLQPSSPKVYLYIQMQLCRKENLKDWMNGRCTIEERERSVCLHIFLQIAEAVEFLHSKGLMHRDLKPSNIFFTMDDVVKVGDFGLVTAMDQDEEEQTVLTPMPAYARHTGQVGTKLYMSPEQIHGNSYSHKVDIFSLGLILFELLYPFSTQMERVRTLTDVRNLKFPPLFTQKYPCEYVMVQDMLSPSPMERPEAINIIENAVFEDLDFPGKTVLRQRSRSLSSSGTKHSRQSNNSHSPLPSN
Description: PERK In Vitro Activity Assay (isolated):
In vitro Inhibition of PERK Enzyme Activity (isolated) Recombinant human EIF2AK2 (PKR) catalytic domain (amino acids 252-551), EIF2AK3 (PERK) catalytic domain (amino acids 536-1116), GFP-eIF2a substrate, and Terbium-labelled phospho-eIF2a antibody is obtained (Invitrogen, Carlsbad, CA).
Express and purify HIS-SUMO-GCN2 catalytic domain (amino acids 584-1019) from E. coli. Perform TR-FRET kinase assays in the absence or presence of inhibitors in a reaction buffer consisting of 50 mM HEPES, pH 7.5, 10 mM MgCb, 1.0 mM EGTA, and 0.01% Brij-35, and 100-200 nM GFP-eIF2a substrate. […] Add test compound, initiate the reaction by addition of enzyme, and incubate at room temperature for 45 minutes. Stop the reaction by addition of EDTA to a final concentration of 10 mM, add Terbium-labelled phospho-eIF2a antibody at a final concentration of 2 nM, and incubate for 90 minutes. Monitor the resulting fluorescence in an EnVison® Multilabel reader (PerkinElmer, Waltham, MA). Determine TR-FRET ratios and the resulting IC50 values using a 4-parameter nonlinear logistic equation as shown: Y=(A+((B−A)/(1+(C/x)AD)))) where, Y=% specific inhibition, A=Bottom of the curve, B=Top of the curve, C=absolute IC50 (concentration causing 50% inhibition), and D=hill slope.

| IC50 [2] [nM] | Structure (SMILES) | IC50 [1] [nM] |
| --- | --- | --- |
| 1000 to 2000 | [2H]C([2H])([2H])c1nc(-c2ccc(NC(=O)C(O)c3cccc(C(F)(F)F)c3)cc2C)c2c(N)ncc(C)n12 (stereo not shown) [Example 16, N-[4-[8-amino-5-methyl-3-(trideuteriomethyl)imidazo[1,5-a]pyrazin-1-yl]-3-methyl-phenyl]-2-hydroxy-2-[3-(trifluoromethyl)phenyl]acetamide] | > 5000 |
| 1 to 25 | [2H]C([2H])([2H])c1nc(-c2ccc(NC(=O)C(O)c3cccc(C(F)(F)F)c3)cc2C)c2c(N)ncc(C)n12 (stereo not shown) [Example 17, N-[4-[8-amino-5-methyl-3-(trideuteriomethyl)imidazo[1,5-a]pyrazin-1-yl]-3-methyl-phenyl]-2-hydroxy-2-[3-(trifluoromethyl)phenyl]acetamide] | 101 to 250 |
| 1 to 25 | [2H]C([2H])([2H])c1nc(-c2ccc(NC(=O)C(O)c3cccc(C(F)(F)F)c3)cc2C)c2c(N)ncc(Cl)n12 (stereo not shown) [Example 18, N-[4-[8-amino-5-chloro-3-(trideuteriomethyl)imidazo[1,5-a]pyrazin-1-yl]-3-methyl-phenyl]-2-hydroxy-2-[3-(trifluoromethyl)phenyl]acetamide] | 1 to 25 |
| 1 to 25 | [2H]C([2H])([2H])c1nc(-c2ccc(NC(=O)C(O)c3cccc(C(F)(F)F)c3)cc2C)c2c(N)ncc(Cl)n12 (stereo not shown) [Example 19, N-[4-[8-amino-5-chloro-3-(trideuteriomethyl)imidazo[1,5-a]pyrazin-1-yl]-3-methyl-phenyl]-2-hydroxy-2-[3-(trifluoromethyl)phenyl]acetamide] | 26 to 50 |
| 1 to 25 | [2H]C([2H])([2H])c1nc(-c2ccc(NC(=O)C(O)c3cccc(C(F)(F)F)c3)cc2C)c2c(N)ncc(C(F)(F)F)n12 (stereo not shown) [Example 20, N-[4-[8-amino-3-(trideuteriomethyl)-5-(trifluoromethyl)imidazo[1,5-a]pyrazin-1-yl]-3-methyl-phenyl]-2-hydroxy-2-[3-(trifluoromethyl)phenyl]acetamide] | 26 to 50 |
| 51 to 100 | [2H]C([2H])([2H])c1nc(-c2ccc(NC(=O)C(O)c3cccc(C(F)(F)F)c3)cc2C)c2c(N)ncc(C(F)(F)F)n12 (stereo not shown) [Example 21, N-[4-[8-amino-3-(trideuteriomethyl)-5-(trifluoromethyl)imidazo[1,5-a]pyrazin-1-yl]-3-methyl-phenyl]-2-hydroxy-2-[3-(trifluoromethyl)phenyl]acetamide] | 501 to 1000 |
| 1 to 25 | Cc1cc(NC(=O)C(O)c2cccc(F)c2)ccc1-c1nc(C)n2c(C(F)(F)F)cnc(N)c12 (stereo not shown) [Example 26, N-(4-(8-amino-3-methyl-5-(trifluoromethyl)imidazo[1,5-a]pyrazin-1-yl)-3-methylphenyl)-2-(3-fluorophenyl)-2-hydroxyacetamide] | 26 to 50 |
| 1 to 25 | Cc1cc(NC(=O)C(O)c2cccc(F)c2)ccc1-c1nc(C)n2c(C(F)(F)F)cnc(N)c12 (stereo not shown) [Example 27, N-(4-(8-amino-3-methyl-5-(trifluoromethyl)imidazo[1,5-a]pyrazin-1-yl)-3-methylphenyl)-2-(3-fluorophenyl)-2-hydroxyacetamide] | 251 to 500 |
| 1 to 25 | Cc1cc(NC(=O)C(O)c2cccc(F)c2)ccc1-c1nc(C)n2c(Cl)cnc(N)c12 (stereo not shown) [Example 28, N-(4-(8-amino-5-chloro-3-methylimidazo[1,5-a]pyrazin-1-yl)-3-methylphenyl)-2-(3-fluorophenyl)-2-hydroxyacetamide] | 1 to 25 |
| 1 to 25 | Cc1cc(NC(=O)C(O)c2cccc(F)c2)ccc1-c1nc(C)n2c(Cl)cnc(N)c12 (stereo not shown) [Example 29, N-(4-(8-amino-5-chloro-3-methylimidazo[1,5-a]pyrazin-1-yl)-3-methylphenyl)-2-(3-fluorophenyl)-2-hydroxyacetamide] | 26 to 50 |
| 1 to 25 | [2H]C([2H])([2H])c1nc(-c2ccc(NC(=O)C(O)c3cccc(F)c3)cc2C)c2c(N)ncc(C(F)(F)F)n12 (stereo not shown) [Example 30, N-[4-[8-amino-3-(trideuteriomethyl)-5-(trifluoromethyl)imidazo[1,5-a]pyrazin-1-yl]-3-methyl-phenyl]-2-(3-fluorophenyl)-2-hydroxy-acetamide] | 1 to 25 |
| 1 to 25 | [2H]C([2H])([2H])c1nc(-c2ccc(NC(=O)C(O)c3cccc(F)c3)cc2C)c2c(N)ncc(C(F)(F)F)n12 (stereo not shown) [Example 31, N-[4-[8-amino-3-(trideuteriomethyl)-5-(trifluoromethyl)imidazo[1,5-a]pyrazin-1-yl]-3-methyl-phenyl]-2-(3-fluorophenyl)-2-hydroxy-acetamide] | 251 to 500 |
| 1 to 25 | [2H]C([2H])([2H])c1nc(-c2ccc(NC(=O)C(O)c3cccc(F)c3)cc2C)c2c(N)ncc(Cl)n12 (stereo not shown) [Example 32, N-[4-[8-amino-5-chloro-3-(trideuteriomethyl)imidazo[1,5-a]pyrazin-1-yl]-3-methyl-phenyl]-2-(3-fluorophenyl)-2-hydroxy-acetamide] | 1 to 25 |
| 1 to 25 | [2H]C([2H])([2H])c1nc(-c2ccc(NC(=O)C(O)c3cccc(F)c3)cc2C)c2c(N)ncc(Cl)n12 (stereo not shown) [Example 33, N-[4-[8-amino-5-chloro-3-(trideuteriomethyl)imidazo[1,5-a]pyrazin-1-yl]-3-methyl-phenyl]-2-(3-fluorophenyl)-2-hydroxy-acetamide] | 51 to 100 |
| 1 to 25 | [2H]C([2H])([2H])c1nc(-c2ccc(NC(=O)C(O)c3cccc(Cl)c3)cc2C)c2c(N)nc(C)cn12 (stereo not shown) [Example 34, N-[4-[8-amino-6-methyl-3-(trideuteriomethyl)imidazo[1,5-a]pyrazin-1-yl]-3-methyl-phenyl]-2-(3-chlorophenyl)-2-hydroxy-acetamide] | 26 to 50 |
| 101 to 250 | [2H]C([2H])([2H])c1nc(-c2ccc(NC(=O)C(O)c3cccc(Cl)c3)cc2C)c2c(N)nc(C)cn12 (stereo not shown) [Example 35, N-[4-[8-amino-6-methyl-3-(trideuteriomethyl)imidazo[1,5-a]pyrazin-1-yl]-3-methyl-phenyl]-2-(3-chlorophenyl)-2-hydroxy-acetamide] | 1000 to 2000 |
| 1 to 25 | [2H]C([2H])([2H])c1nc(-c2ccc(NC(=O)C(O)c3cccc(Cl)c3)cc2C)c2c(N)ncc(C)n12 (stereo not shown) [Example 36, N-[4-[8-amino-5-methyl-3-(trideuteriomethyl)imidazo[1,5-a]pyrazin-1-yl]-3-methyl-phenyl]-2-(3-chlorophenyl)-2-hydroxy-acetamide] | 1 to 25 |
| 1 to 25 | [2H]C([2H])([2H])c1nc(-c2ccc(NC(=O)C(O)c3cccc(Cl)c3)cc2C)c2c(N)ncc(C)n12 (stereo not shown) [Example 37, N-[4-[8-amino-5-methyl-3-(trideuteriomethyl)imidazo[1,5-a]pyrazin-1-yl]-3-methyl-phenyl]-2-(3-chlorophenyl)-2-hydroxy-acetamide] | 51 to 100 |
| 1 to 25 | Cc1cc(NC(=O)C(O)c2cccc(Cl)c2)ccc1-c1nc(C)n2c(C)cnc(N)c12 (stereo not shown) [Example 38, N-(4-(8-amino-3,5-dimethylimidazo [1,5-a]pyrazin-1-yl)-3-methyl-phenyl)-2-(3-chlorophenyl)-2-hydroxyacetamide] | 1 to 25 |
| 1 to 25 | Cc1cc(NC(=O)C(O)c2cccc(Cl)c2)ccc1-c1nc(C)n2c(C)cnc(N)c12 (stereo not shown) [Example 39, N-(4-(8-amino-3,5-dimethylimidazo [1,5-a]pyrazin-1-yl)-3-methyl-phenyl)-2-(3-chlorophenyl)-2-hydroxyacetamide] | 101 to 250 |
| 1 to 25 | [2H]C([2H])([2H])c1nc(-c2ccc(NC(=O)C(O)c3cccc(Cl)c3)cc2C)c2c(N)ncc(Cl)n12 (stereo not shown) [Example 42, N-[4-[8-amino-5-chloro-3-(trideuteriomethyl)imidazo[1,5-a]pyrazin-1-yl]-3-methyl-phenyl]-2-(3-chlorophenyl)-2-hydroxy-acetamide] | 1 to 25 |
| 1 to 25 | [2H]C([2H])([2H])c1nc(-c2ccc(NC(=O)C(O)c3cccc(Cl)c3)cc2C)c2c(N)ncc(Cl)n12 (stereo not shown) [Example 43, N-[4-[8-amino-5-chloro-3-(trideuteriomethyl)imidazo[1,5-a]pyrazin-1-yl]-3-methyl-phenyl]-2-(3-chlorophenyl)-2-hydroxy-acetamide] | 26 to 50 |
| 1 to 25 | [2H]C([2H])([2H])c1nc(-c2ccc(NC(=O)C(O)c3cc(F)cc(F)c3)cc2C)c2c(N)nc(C)cn12 (stereo not shown) [Example 44, N-[4-[8-amino-6-methyl-3-(trideuteriomethyl)imidazo[1,5-a]pyrazin-1-yl]-3-methyl-phenyl]-2-(3,5-difluoro-phenyl)-2-hydroxy-acetamide] | 101 to 250 |
